Our source for the IC50 values is US12421253B2 (Mirati Therapeutics, Inc., priority 2020, dated 2025).

One test deals with T1, KRas^G12D (Homo sapiens, UniProt P01116, G12D).
T1 construct: […]; biotin (biotinylated); purchased Accelegan Inc
Briefly: KRas binding assay (TR-FRET displacement of Cy5 labelled tracer). For orientation: TR-FRET usually uses a lanthanide donor and a delayed reading to cut background.

The next test concerns the target KRas^G12C (Homo sapiens, UniProt P01116, G12C). Briefly: biochemical.
The target in another test is KRas^G13D (Homo sapiens, UniProt P01116, G13D). The test is described as follows: biochemical.
KRas^G13D, sequence (P01116 1-169 isoform P01116-2 G13D): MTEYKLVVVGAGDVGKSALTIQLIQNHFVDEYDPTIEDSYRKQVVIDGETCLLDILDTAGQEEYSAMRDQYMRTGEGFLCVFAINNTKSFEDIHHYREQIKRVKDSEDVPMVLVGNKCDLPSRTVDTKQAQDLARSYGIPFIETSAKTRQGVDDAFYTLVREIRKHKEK
The next test has as its target T2, KRas^WT (Homo sapiens, UniProt P01116).
T2 construct: […]; biotin (biotinylated); purchased Accelegan Inc
Briefly: KRas binding assay (TR-FRET displacement of Cy5 labelled tracer).

The target in a further test is T3, KRas^G12A (Homo sapiens, UniProt P01116, G12A).
T3 construct: […]; biotin (biotinylated); purchased Accelegan Inc
T3 sequence (P01116 1-169 isoform P01116-2 G12A): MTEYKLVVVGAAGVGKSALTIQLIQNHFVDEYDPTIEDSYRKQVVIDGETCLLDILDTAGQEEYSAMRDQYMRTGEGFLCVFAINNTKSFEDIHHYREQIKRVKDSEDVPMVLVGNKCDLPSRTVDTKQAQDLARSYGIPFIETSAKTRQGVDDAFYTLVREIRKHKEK
Described as above.

The target of the next test is T4, KRas^G12V (Homo sapiens, UniProt P01116, G12V).
T4 construct: […]; biotin (biotinylated); purchased Accelegan Inc
T4 sequence (P01116 1-169 isoform P01116-2 G12V): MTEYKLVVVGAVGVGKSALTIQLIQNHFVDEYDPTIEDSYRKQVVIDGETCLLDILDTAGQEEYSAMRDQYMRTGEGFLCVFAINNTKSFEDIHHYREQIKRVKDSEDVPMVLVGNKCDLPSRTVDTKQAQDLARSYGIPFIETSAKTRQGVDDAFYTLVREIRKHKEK
The description is as above.

The target of another test is T5, KRas^G12R (Homo sapiens, UniProt P01116, G12R).
T5 construct: […]; biotin (biotinylated); purchased Accelegan Inc
T5 sequence (P01116 1-169 isoform P01116-2 G12R): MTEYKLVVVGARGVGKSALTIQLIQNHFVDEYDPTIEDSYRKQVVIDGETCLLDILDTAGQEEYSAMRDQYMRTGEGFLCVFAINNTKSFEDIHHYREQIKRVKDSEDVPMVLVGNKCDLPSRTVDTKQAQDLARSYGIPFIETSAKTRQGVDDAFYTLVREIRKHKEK
The test is described as above.

For another test, the target named is KRas^Q61H (Homo sapiens, UniProt P01116, Q61H). Briefly: biochemical.
KRas^Q61H, sequence (P01116 1-169 isoform P01116-2 Q61H): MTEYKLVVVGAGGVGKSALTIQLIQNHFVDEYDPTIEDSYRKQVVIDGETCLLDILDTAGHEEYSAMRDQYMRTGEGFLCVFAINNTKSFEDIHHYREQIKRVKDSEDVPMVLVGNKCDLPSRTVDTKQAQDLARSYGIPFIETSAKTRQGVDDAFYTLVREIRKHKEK
A further test deals with T6, KRas^G12S (Homo sapiens, UniProt P01116, G12S).
T6 construct: […]; biotin (biotinylated); purchased Accelegan Inc
T6 sequence (P01116 1-169 isoform P01116-2 G12S): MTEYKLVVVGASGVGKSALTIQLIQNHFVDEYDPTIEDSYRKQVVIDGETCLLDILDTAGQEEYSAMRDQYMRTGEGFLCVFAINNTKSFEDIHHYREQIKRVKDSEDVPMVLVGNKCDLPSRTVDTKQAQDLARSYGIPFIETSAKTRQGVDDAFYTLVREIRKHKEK
The test is described as follows: KRas binding assay (TR-FRET displacement of Cy5 labelled tracer).

T1 sequence (P01116 1-169 isoform P01116-2 G12D): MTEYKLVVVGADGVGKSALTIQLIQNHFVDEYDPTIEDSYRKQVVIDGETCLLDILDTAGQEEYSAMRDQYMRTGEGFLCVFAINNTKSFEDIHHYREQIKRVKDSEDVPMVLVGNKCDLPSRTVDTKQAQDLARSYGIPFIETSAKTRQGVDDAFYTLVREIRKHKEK
T2 sequence (P01116 1-169 isoform P01116-2): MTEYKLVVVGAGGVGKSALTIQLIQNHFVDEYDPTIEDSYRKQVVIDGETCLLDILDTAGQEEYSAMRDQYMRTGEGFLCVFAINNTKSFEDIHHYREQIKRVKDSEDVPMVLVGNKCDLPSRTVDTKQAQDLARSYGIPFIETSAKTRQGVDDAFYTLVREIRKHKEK
KRas^G12C, sequence (P01116 1-169 isoform P01116-2 G12C): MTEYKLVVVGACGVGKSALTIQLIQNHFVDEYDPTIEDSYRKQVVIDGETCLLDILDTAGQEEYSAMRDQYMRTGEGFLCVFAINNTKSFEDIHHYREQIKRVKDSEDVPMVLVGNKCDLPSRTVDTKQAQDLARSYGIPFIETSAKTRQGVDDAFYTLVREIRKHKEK
Procedure for KRas^G12A: (§1) The ability of a compound to bind to KRas was measured using a TR-FRET displacement assay. […] After a 60-minute incubation at room temperature, the reaction was measured using a BMG LABTECH CLARIO star Plus via TR-FRET. […] The POC values were fit to a 4-parameter IC50 equation and the IC50 value reported.
Procedure for KRas^G12C: as §1
Procedure for KRas^G12D: as §1
Procedure for KRas^G12R: as §1
Procedure for KRas^G12S: as §1
Procedure for KRas^G12V: as §1
Procedure for KRas^G13D: as §1
Procedure for KRas^Q61H: as §1
Procedure for KRas^WT: as §1

By IC50 is commonly meant the point on the concentration scale where inhibition reaches its midpoint. With `CCc1cccc2cccc(N3CCc4c(nc(OCC56CCCN5CCC6)nc4NCc4nc5ncccc5o4)C3)c12` [Example 157, 7-(8-ethylnaphthalen-1-yl)-N-(oxazolo[4,5-b]pyridin-2-ylmethyl)-2-((tetrahydro-1H-pyrrolizin-7a(5H)-yl)methoxy)-5,6,7,8-tetrahydropyrido[3,4-d]pyrimidin-4-amine], the IC50 on KRas^G12D amounted to 6.3 µM; at KRas^G12C it was 7.02 µM; against KRas^G13D, 15.5 µM; on KRas^WT it was 17.3 µM; on KRas^G12A, 24.3 µM; on KRas^G12V, 1.95 µM. Besides, the IC50 on KRas^G12R was 9.04 µM; on KRas^Q61H, 19.9 µM; at KRas^G12S, 10.6 µM.

As for `CCc1cccc2cccc(N3CCc4c(nc(OCC56CCCN5CCC6)nc4NC[C@H]4CCC(=O)N4)C3)c12` [Example 148, (R)-5-(((7-(8-ethylnaphthalen-1-yl)-2-((tetrahydro-1H-pyrrolizin-7a(5H)-yl)methoxy)-5,6,7,8-tetrahydropyrido[3,4-d]pyrimidin-4-yl)amino)methyl)pyrrolidin-2-one], the concentration for half-maximal inhibition (IC50) on KRas^G12D turned out to be 7.62 µM; against KRas^G12C, 3.07 µM; against KRas^G13D, 7.15 µM; at KRas^WT it was 7.31 µM; on KRas^G12A, 3.24 µM; at KRas^G12V, 1.35 µM. Further, the half-inhibitory concentration (IC50) on KRas^G12R worked out at 4.35 µM; against KRas^Q61H, 7.8 µM; on KRas^G12S, 2.9 µM.

As for `CCc1cccc2cccc(N3CCc4c(nc(OCC56CCCN5CCC6)nc4NC4CN(c5ccccn5)C4)C3)c12` [Example 150, 7-(8-ethylnaphthalen-1-yl)-N-(1-(pyridin-2-yl)azetidin-3-yl)-2-((tetrahydro-1H-pyrrolizin-7a(5H)-yl)methoxy)-5,6,7,8-tetrahydropyrido[3,4-d]pyrimidin-4-amine], the IC50 on KRas^G12D amounted to 5.53 µM; against KRas^G12C, 1.95 µM; on KRas^G13D, 5.98 µM; at KRas^WT, 4.73 µM; on KRas^G12A, 5.03 µM; at KRas^G12V it was 2.55 µM. Moreover, the half-maximal inhibitory concentration (IC50) is 1.56 µM at KRas^G12R, 5.16 µM against KRas^Q61H and 4.87 µM at KRas^G12S.

On to `CCc1cccc2cccc(N3CCc4c(nc(OCC56CCCN5CCC6)nc4Nc4cnn(CC(N)=O)c4)C3)c12` [Example 139, 2-(4-((7-(8-ethylnaphthalen-1-yl)-2-((tetrahydro-1H-pyrrolizin-7a(5H)-yl)methoxy)-5,6,7,8-tetrahydropyrido[3,4-d]pyrimidin-4-yl)amino)-1H-pyrazol-1-yl)acetamide], for which the half-inhibitory concentration (IC50) at KRas^G12D was 12.4 µM; against KRas^G12C, 1.49 µM; against KRas^G13D it was 5.44 µM; at KRas^WT, 3.48 µM; at KRas^G12A it was 2.54 µM; at KRas^G12V it was 1.17 µM. In addition, the IC50 on KRas^G12R amounted to 1.41 µM; at KRas^Q61H, 4.58 µM; on KRas^G12S, 2.83 µM.

Turning to `CCc1cccc2cccc(N3CCc4c(nc(OCC56CCCN5CCC6)nc4N4CCCC(O)(C(F)F)C4)C3)c12` (stereo not drawn) [Example 44, 3-(difluoromethyl)-1-(7-(8-ethylnaphthalen-1-yl)-2-((hexahydro-1H-pyrrolizin-7a-yl)methoxy)-5,6,7,8-tetrahydropyrido[3,4-d]pyrimidin-4-yl)piperidin-3-ol], the concentration for half-maximal inhibition (IC50) on KRas^G12D stood at 0.162 µM; against KRas^G12C, 0.232 µM; on KRas^G13D, 0.163 µM; on KRas^WT it was 0.191 µM; on KRas^G12A, 0.202 µM; at KRas^G12V it was 0.2 µM. For the same compound, the results for the IC50 on KRas^G12R, at KRas^Q61H and on KRas^G12S were 0.308 µM, 0.226 µM and 0.202 µM, respectively.

Turning to `CCc1cccc2cccc(N3CCc4c(nc(OCC56CCCN5CCC6)nc4NC4CN(C(N)=O)C4)C3)c12` [Example 147, 3-((7-(8-ethylnaphthalen-1-yl)-2-((tetrahydro-1H-pyrrolizin-7a(5H)-yl)methoxy)-5,6,7,8-tetrahydropyrido[3,4-d]pyrimidin-4-yl)amino)azetidine-1-carboxamide], the half-maximal inhibitory concentration (IC50) on KRas^G12D was found to be 1.32 µM; against KRas^G12C, 1.65 µM; on KRas^G13D it was 3.63 µM; at KRas^WT, 2.45 µM; on KRas^G12A, 2.71 µM; on KRas^G12V, 1.45 µM. For the same compound, the half-maximal inhibitory concentration (IC50) at KRas^G12R turned out to be 1.49 µM; on KRas^Q61H, 3.21 µM; at KRas^G12S, 2.15 µM.

On to `CCc1cccc2cccc(N3CCc4c(nc(OCC56CCCN5CCC6)nc4N4CCCCC(C)C4)C3)c12` (stereo not drawn) [Example 119], for which the IC50 at KRas^G12D turned out to be 1.05 µM; at KRas^G12C, 0.811 µM; against KRas^G13D it was 0.735 µM; on KRas^WT, 0.967 µM; on KRas^G12A it was 0.644 µM; on KRas^G12V, 0.564 µM. Moreover, the concentration for half-maximal inhibition (IC50) at KRas^G12R was determined as 0.836 µM; at KRas^Q61H, 0.778 µM; at KRas^G12S it was 0.797 µM.

Consider `CCc1cccc2cccc(N3CCc4c(nc(OCC56CCCN5CCC6)nc4N4CCCC(n5nccn5)C4)C3)c12` (stereo not drawn) [Example 132, 4-(3-(2H-1,2,3-triazol-2-yl)piperidin-1-yl)-7-(8-ethylnaphthalen-1-yl)-2-((tetrahydro-1H-pyrrolizin-7a(5H)-yl)methoxy)-5,6,7,8-tetrahydropyrido[3,4-d]pyrimidine], for which the IC50 on KRas^G12D was found to be 3.9 µM; against KRas^G12C, 1.32 µM; against KRas^G13D, 1.45 µM; on KRas^WT it was 1.43 µM; on KRas^G12A, 1.18 µM; at KRas^G12V it was 1.64 µM. Also, the figures for the 50% inhibitory concentration (IC50) on KRas^G12R, against KRas^Q61H and on KRas^G12S were 0.775 µM, 1.72 µM and 1.66 µM, respectively.

Consider `CCc1cccc2cccc(N3CCc4c(nc(OCC56CCCN5CCC6)nc4NCc4ccc5nncn5c4)C3)c12` [Example 39, N-([1,2,4]triazolo[4,3-a]pyridin-6-ylmethyl)-7-(8-ethylnaphthalen-1-yl)-2-((hexahydro-1H-pyrrolizin-7a-yl)methoxy)-5,6,7,8-tetrahydropyrido[3,4-d]pyrimidin-4-amine], for which the half-maximal inhibitory concentration (IC50) turned out to be 7.11 µM on KRas^G12D; 0.317 µM against KRas^G12C; 1.53 µM against KRas^G13D; 1.37 µM at KRas^WT; 0.425 µM on KRas^G12A; 0.221 µM at KRas^G12V. For the same compound, the half-maximal inhibitory concentration (IC50) was determined as 0.239 µM on KRas^G12R, 1.64 µM against KRas^Q61H and 0.592 µM on KRas^G12S.

Regarding `CCc1cccc2cccc(N3CCc4c(nc(OCC56CCCN5CCC6)nc4N4C[C@@H](C)C[C@H](O)C4)C3)c12` [Example 97, (3S,5S)-1-(7-(8-ethylnaphthalen-1-yl)-2-((tetrahydro-1H-pyrrolizin-7a(5H)-yl)methoxy)-5,6,7,8-tetrahydropyrido[3,4-d]pyrimidin-4-yl)-5-methylpiperidin-3-ol], the IC50 on KRas^G12D is 1.16 µM; on KRas^G12C, 0.558 µM; against KRas^G13D, 0.336 µM; at KRas^WT, 0.321 µM; on KRas^G12A it was 0.484 µM; on KRas^G12V it was 0.567 µM. Further, the results for the IC50 at KRas^G12R, on KRas^Q61H and at KRas^G12S were 0.499 µM, 0.4 µM and 0.52 µM, respectively.

With `CCc1cccc2cccc(N3CCc4c(nc(OCC56CCCN5CCC6)nc4N4CCCn5nc(N)cc5C4)C3)c12` [Example 10, 5-(7-(8-ethylnaphthalen-1-yl)-2-((tetrahydro-1H-pyrrolizin-7a(5H)-yl)methoxy)-5,6,7,8-tetrahydropyrido[3,4-d]pyrimidin-4-yl)-5,6,7,8-tetrahydro-4H-pyrazolo[1,5-a][1,4]diazepin-2-amine], the IC50 at KRas^G12D was determined as 0.067 µM; against KRas^G12C, 0.081 µM; against KRas^G13D, 0.375 µM; on KRas^WT, 0.171 µM; at KRas^G12A, 0.169 µM; at KRas^G12V it was 0.081 µM. The 50% inhibitory concentration (IC50) at KRas^G12R came to 0.074 µM; against KRas^Q61H, 0.291 µM; at KRas^G12S, 0.101 µM.

`CCc1cccc2cccc(N3CCc4c(nc(OCC56CCCN5CCC6)nc4N4CC5(CNC(=O)N5)C4)C3)c12` [Example 149, 2-(7-(8-ethylnaphthalen-1-yl)-2-((tetrahydro-1H-pyrrolizin-7a(5H)-yl)methoxy)-5,6,7,8-tetrahydropyrido[3,4-d]pyrimidin-4-yl)-2,5,7-triazaspiro[3.4]octan-6-one]: the IC50 turned out to be 43 µM on KRas^G12D; 1.85 µM at KRas^G12C; 6.89 µM at KRas^G13D; 4.75 µM at KRas^WT; 2.54 µM at KRas^G12A; 1.42 µM at KRas^G12V. For the same compound, the IC50 was 1.82 µM on KRas^G12R, 6.31 µM at KRas^Q61H and 3.35 µM on KRas^G12S.

With `CCc1cccc2cccc(N3CCc4c(nc(OCC56CCCN5CCC6)nc4N4CCCn5nc(CO)cc5C4)C3)c12` [Example 8, (5-(7-(8-ethylnaphthalen-1-yl)-2-((tetrahydro-1H-pyrrolizin-7a(5H)-yl)methoxy)-5,6,7,8-tetrahydropyrido[3,4-d]pyrimidin-4-yl)-5,6,7,8-tetrahydro-4H-pyrazolo[1,5-a][1,4]diazepin-2-yl)methanol], the IC50 was found to be 0.043 µM on KRas^G12D; 0.139 µM at KRas^G12C; 0.628 µM against KRas^G13D; 0.271 µM on KRas^WT; 0.316 µM at KRas^G12A; 0.137 µM at KRas^G12V. In addition, the concentration for half-maximal inhibition (IC50) was determined as 0.102 µM on KRas^G12R, 0.567 µM at KRas^Q61H and 0.175 µM on KRas^G12S.
